According to patent US9896418B2, “Aryl ethers and uses thereof” (Peloton Therapeutics, Inc., priority 2013, dated 2018):

Each compound was assayed on HIF-2α HIS TAG-PASB Domain (assay: HIF-2α Scintillation Proximity Assay (SPA)).
Format: binding
Experimental: The percent inhibition was determined and IC50 values were calculated using the Dotmatics system based on the following equation: % inhibition=[(high control−sample)/(high control−low control)]×100.

| Compound | IC50 |
| --- | --- |
| O=[N+]([O-])c1c(Oc2cc(F)cc(Cl)c2)ccc(C(F)(F)F)c1Cl [Compound 203, 2-Chloro-4-(3-chloro-5-fluorophenoxy)-3-nitro-1-(trifluoromethyl)benzene] | 77 nM |
| O=[N+]([O-])c1c(Oc2cccc(Cl)c2)ccc(C(F)(F)F)c1Cl [Compound 204, 2-Chloro-4-(3-chlorophenoxy)-3-nitro-1-(trifluoromethyl)benzene 1,3-dichloro-2-nitro-4-(trifluoromethyl)benzene] | 210 nM |
| CCS(=O)(=O)c1ccc(Oc2cc(F)cc(C#N)c2)c2c1C(O)CC2 (stereo not shown) [Compound 205, 3-((7-(Ethylsulfonyl)-1-hydroxy-2,3-dihydro-1H-inden-4-yl)oxy)-5-fluorobenzonitrile] | 2400 nM |
| N#Cc1cc(F)cc(Oc2ccc(S(=O)(=O)C(F)F)c3c2CC(F)(F)[C@H]3N)c1 [Compound 207, (S)-3-((1-Amino-7-((difluoromethyl)sulfonyl)-2,2-difluoro-2,3-dihydro-1H-inden-4-yl)oxy)-5-fluorobenzonitrile] | 500 nM |
| N#Cc1cc(F)cc(Oc2ccc(S(=O)(=O)C3CCC3)c3c2CCC3O)c1 (stereo not shown) [Compound 208, 3-((7-(Cyclobutylsulfonyl)-1-hydroxy-2,3-dihydro-1H-inden-4-yl)oxy)-5-fluorobenzonitrile] | > 100000 nM |
| CO[C@H]1c2c(S(C)(=O)=O)ccc(Oc3cc(F)cc(C#N)c3)c2CC1(F)F [Compound 210, (S)-3-((2,2-Difluoro-1-methoxy-7-(methylsulfonyl)-2,3-dihydro-1H-inden-4-yl)oxy)-5-fluorobenzonitrile] | 17000 nM |
| CNS(=O)(=O)c1ccc(Oc2cc(F)cc(F)c2)c2c1C(O)CC2 (stereo not shown) [Compound 211, 7-(3,5-Difluorophenoxy)-3-hydroxy-N-methyl-2,3-dihydro-1H-indene-4-sulfonamide] | 2100 nM |
| O=S(=O)(c1ccc(Oc2ccc(F)cc2)c2c1C(O)CC2)C(F)(F)F (stereo not shown) [Compound 212, 4-(4-Fluorophenoxy)-7-((trifluoromethyl)sulfonyl)-2,3-dihydro-1H-inden-1-ol] | 670 nM |
| Cc1cc(Oc2cc(F)cc(C#N)c2)c2c(c1S(C)(=O)=O)C(O)C(F)(F)C2 (stereo not shown) [Compound 213, 3-((2,2-Difluoro-1-hydroxy-6-methyl-7-(methylsulfonyl)-2,3-dihydro-1H-inden-4-yl)oxy)-5-fluorobenzonitrile] | 800 nM |
| O=S(=O)(c1ccc(Oc2ccc(F)c(F)c2)c2c1C(O)CC2)C(F)(F)F (stereo not shown) [Compound 214, 4-(3,4-Difluorophenoxy)-7-((trifluoromethyl)sulfonyl)-2,3-dihydro-1H-inden-1-ol] | 230 nM |
| N#Cc1cc(Oc2ccc(S(=O)(=O)C(F)(F)F)c3c2CCC3O)ccc1F (stereo not shown) [Compound 216, 2-Fluoro-5-((1-hydroxy-7-((trifluoromethyl)sulfonyl)-2,3-dihydro-1H-inden-4-yl)oxy)benzonitrile] | 2700 nM |
| O=S(=O)(c1ccc(Oc2ccc(F)c(Cl)c2)c2c1C(O)CC2)C(F)(F)F (stereo not shown) [Compound 218, 4-(3-Chloro-4-fluorophenoxy)-7-((trifluoromethyl)sulfonyl)-2,3-dihydro-1H-inden-1-ol] | 810 nM |
| CS(=O)(=O)c1cc(F)c(Oc2cc(F)cc(C#N)c2)c2c1C(O)C(F)(F)C2 (stereo not shown) [Compound 219, 3-Fluoro-5-((2,2,5-trifluoro-1-hydroxy-7-(methylsulfonyl)-2,3-dihydro-1H-inden-4-yl)oxy)benzonitrile] | 17000 nM |
| N#Cc1cncc(Oc2ccc(S(=O)(=O)C(F)(F)F)c3c2CCC3O)c1 (stereo not shown) [Compound 220, 5-((1-Hydroxy-7-((trifluoromethyl)sulfonyl)-2,3-dihydro-1H-inden-4-yl)oxy)nicotinonitrile] | 700 nM |
| O=S(=O)(c1ccc(Oc2ccc3[nH]ncc3c2)c2c1C(O)C(F)(F)C2)C(F)(F)F (stereo not shown) [Compound 238, 4-((1H-Indazol-5-yl)oxy)-2,2-difluoro-7-((trifluoromethyl)sulfonyl)-2,3-dihydro-1H-inden-1-ol] | 4900 nM |
| O=S(=O)(c1ccc(Oc2cccc3[nH]ncc23)c2c1C(O)C(F)(F)C2)C(F)(F)F (stereo not shown) [Compound 243] | 250 nM |
| O=S(=O)(c1ccc(Oc2c(F)ccc3[nH]ncc23)c2c1C(O)C(F)(F)C2)C(F)(F)F (stereo not shown) [Compound 244, 2,2-Difluoro-4-((5-fluoro-1H-indazol-4-yl)oxy)-7-((trifluoromethyl)sulfonyl)-2,3-dihydro-1H-inden-1-ol] | 1000 nM |
| N#Cc1cc(F)cc(Oc2ccc(Br)c3c2C(F)(F)C(F)(F)C3)c1 [Compound 248, 3-((7-Bromo-2,2,3,3-tetrafluoro-2,3-dihydro-1H-inden-4-yl)oxy)-5-fluorobenzonitrile] | 17000 nM |
| CS(=O)(=O)c1ccc(Oc2cc(C#N)cc(C(F)F)c2)c2c1C(O)CC2 (stereo not shown) [Compound 249, 3-(Difluoromethyl)-5-((1-hydroxy-7-(methylsulfonyl)-2,3-dihydro-1H-inden-4-yl)oxy)benzonitrile] | 880 nM |

| Compound | IC50 |
| --- | --- |
| N#Cc1cc(F)cc(Oc2ccc(S(=O)(=O)CCO)c3c2CC(F)(F)C3O)c1 (stereo not shown) [Compound 250, 3-((2,2-Difluoro-1-hydroxy-7-((2-hydroxyethyl)sulfonyl)-2,3-dihydro-1H-inden-4-yl)oxy)-5-fluorobenzonitrile] | 1300 nM |
| N#Cc1cncc(Oc2ccc(S(N)(=O)=O)c3c2CC(F)(F)[C@H]3O)c1 [Compound 253, (S)-7-((5-Cyanopyridin-3-yl)oxy)-2,2-difluoro-3-hydroxy-2,3-dihydro-1H-indene-4-sulfonamide] | 18000 nM |
| NS(=O)(=O)c1ccc(Oc2cc(F)cc(F)c2)c2c1C(O)CC2 (stereo not shown) [Compound 257, 7-(3,5-Difluorophenoxy)-3-hydroxy-2,3-dihydro-1H-indene-4-sulfonamide] | 1900 nM |
| N#Cc1cc(F)cc(Oc2ccc(S(=N)(=O)C(F)(F)F)c3c2CCC3O)c1 (stereo not drawn) [Compound 258, 3-Fluoro-5-((1-hydroxy-7-(S-(trifluoromethyl)sulfonimidoyl)-2,3-dihydro-1H-inden-4-yl)oxy)benzonitrile] | 410 nM |
| O=S(=O)(c1ccc(Oc2cc(F)c(F)c3[nH]ncc23)c2c1C(O)C(F)(F)C2)C(F)(F)F (stereo not shown) [Compound 261, 4-((6,7-Difluoro-1H-indazol-4-yl)oxy)-2,2-difluoro-7-((trifluoromethyl)sulfonyl)-2,3-dihydro-1H-inden-1-ol] | 640 nM |
| O=S(=O)(c1ccc(Oc2cc(F)cc3[nH]ncc23)c2c1C(O)C(F)(F)C2)C(F)(F)F (stereo not shown) [Compound 262, 2,2-Difluoro-4-((6-fluoro-1H-indazol-4-yl)oxy)-7-((trifluoromethyl)sulfonyl)-2,3-dihydro-1H-inden-1-ol] | 4900 nM |
| O=S(=O)(c1ccc(Oc2cccc3[nH]ncc23)c2c1[C@H](O)C(F)(F)C2)C(F)(F)F [Compound 263, (S)-4-((1H-Indazol-4-yl)oxy)-2,2-difluoro-7-((trifluoromethyl)sulfonyl)-2,3-dihydro-1H-inden-1-ol] | 25 nM |
| O=S(=O)(c1ccc(Oc2c(F)ccc3[nH]ncc23)c2c1[C@H](O)C(F)(F)C2)C(F)(F)F [Compound 264, (S)-2,2-Difluoro-4-((5-fluoro-1H-indazol-4-yl)oxy)-7-((trifluoromethyl)sulfonyl)-2,3-dihydro-1H-inden-1-ol] | 380 nM |
| N#Cc1cc(F)cc(Oc2ccc(S(=O)(=O)C(F)(F)F)c3c2CC(F)C3N)c1 (stereo not shown) [Compound 268, 3-((1-amino-2-fluoro-7-((trifluoromethyl)sulfonyl)-2,3-dihydro-1H-inden-4-yl)oxy)-5-fluorobenzonitrile] | 3500 nM |
| CS(=O)(=O)c1ccc(Oc2cc(F)cc(C#N)c2)c2c1C(=O)C(F)(Cl)C2 (stereo not shown) [Compound 269, 3-((2-chloro-2-fluoro-7-(methylsulfonyl)-1-oxo-2,3-dihydro-1H-inden-4-yl)oxy)-5-fluorobenzonitrile] | 310 nM |
| C[S+]([O-])c1ccc(Oc2cc(F)cc(C#N)c2)c2c1[C@H](O)C(F)(F)C2 (stereo partly drawn) [Compound 272, 3-[(1S)-2,2-Difluoro-1-hydroxy-7-methylsulfinyl-indan-4-yl]oxy-5-fluoro-benzonitrile] | 2000 nM |
| C=C1CC(O)c2c(S(C)(=O)=O)ccc(Oc3cc(F)cc(Cl)c3)c21 (stereo not shown) [Compound 280, 4-(3-chloro-5-fluorophenoxy)-3-methylene-7-(methylsulfonyl)-2,3-dihydro-1H-inden-1-ol] | 3400 nM |
| N#CN=S(=O)(CF)c1ccc(Oc2cc(F)cc(C#N)c2)c2c1[C@H](O)CC2 (stereo partly drawn) [Compound 282, N—(((R)-7-(3-cyano-5-fluorophenoxy)-3-hydroxy-2,3-dihydro-1H-inden-4-yl)(fluoromethyl)(oxo)-λ^6-sulfanylidene)cyanamide] | 7200 nM |
| N#CN=S(=O)(CF)c1ccc(Oc2cc(F)cc(C#N)c2)c2c1[C@H](O)CC2 (stereo partly drawn) [Compound 283, N—(((R)-7-(3-cyano-5-fluorophenoxy)-3-hydroxy-2,3-dihydro-1H-inden-4-yl)(fluoromethyl)(oxo)-λ^6-sulfanylidene)cyanamide] | 1400 nM |
| CS(=O)(=O)N=S(=O)(CF)c1ccc(Oc2cc(F)cc(C#N)c2)c2c1[C@H](O)C(F)(F)C2 (stereo partly drawn) [Compound 284, N—(((S)-7-(3-cyano-5-fluorophenoxy)-2,2-difluoro-3-hydroxy-2,3-dihydro-1H-inden-4-yl)(fluoromethyl)(oxo)-λ^6-sulfanylidene)methanesulfonamide] | 5600 nM |
| N#Cc1cc(F)cc(Oc2ccc(S(=O)(=O)C(F)(F)F)c3c2CC(F)(F)[C@H]3NCCO)c1 [Compound 291, 3-[(1S)-2,2-difluoro-1-(2-hydroxyethylamino)-7-(trifluoromethylsulfonyl)indan-4-yl]oxy-5-fluoro-benzonitrile] | 4900 nM |
| CS(=O)(=O)c1ccc(Oc2cc(F)cc(C#N)c2)c2c1[C@H](O)C(F)(F)[C@H]2F [Compound 293, 3-fluoro-5-[(1S,3S)-2,2,3-trifluoro-1-hydroxy-7-methylsulfonyl-indan-4-yl]oxy-benzonitrile] | 720 nM |
| CS(=O)(=O)c1ccc(Oc2cc(F)cc(C#N)c2)c2c1[C@H](O)C[C@@H]2F [Compound 295, 3-fluoro-5-[(1R,3S)-3-fluoro-1-hydroxy-7-methylsulfonyl-indan-4-yl]oxy-benzonitrile] | 230 nM |
